Values quoted from earlier work, collected in patent US20060172402A1, “Production of vanillin in microbial cells” (priority 2002, published 2006).

test system: tobacco class II COMT; conditions: Maury et al., 1999

activity of the enzyme against the substrate	Structure (SMILES)
no activity	COc1cc(/C=C/C(=O)O)cc(O)c1O [5-OH-Ferulic acid]
no activity	O=C(O)/C=C/c1ccc(O)c(O)c1 [Caffeic acid]
did have activity	O=Cc1ccc(O)c(O)c1 [3,4-Dihydioxybenzaldehyde, 3,4-dihydroxybenzaldehyde]
